System: rats
Assay: nephrotoxicity model: eicosanoids in plasma of rats receiving puromycin, LC-MS/MS
Assay type: in vivo
Details: 4 groups receiving different dosages of puromycin, FIG. 4
Method: To determine free fatty acid metabolites in various biological materials, a small amount of sample (20 μL) was applied onto a filter spot containing stable isotopes for the various metabolites in a microtiter plate and extracted in aqueous methanol without further derivatization as described in FIG. 1. Separation of metabolites was done on a RP-HPLC (Zorbax Eclipse C18, 3.0×100 mm, 3.5 μm) column after injection of 20 μL extract using an Agilent 1100 system (Agilent Technologies) with an HTC PAL autosampler (CTC Analytics). Mobile phase compositions were A: H2O with 0.05% (v/v) formic acid and B: acetonitrile with 0.05% (v/v) formic acid. Flow rate was constant at 500 μL/min, metabolites were separated by gradient elution. Detection was done by MRM transitions in negative detection mode using an API4000Qtrap® equipped with an ESI source (Applied Biosystems). Quantification of metabolites was performed with Analyst v.1.4.2 quantitation.
Test cases of disease states show an increase of free fatty acids, prostaglandins and hydroxylated species in conjunction with pulmonary inflammations, prostate cancer and cardiovascular disease. […]
Plasma samples obtained from 4 groups of rats receiving different dosages of puromycin were analyzed.
FIGS. 4a, 4b, 4c and 4d. […] The concentrations of 4 different eicosanoids (as indicated) in rat plasma samples have been determined and normalized.

COc1ccc(C[C@H](N)C(=O)N[C@H]2[C@@H](O)[C@H](n3cnc4c(N(C)C)ncnc43)O[C@@H]2CO)cc1 [puromycin]
cyclooxygenase and lipoxygenase activity (concentrations of 4 different eicosanoids in rat plasma, normalized): Increased cyclooxygenase and lipoxygenase activity

— patent US20100233746A1, “Inflammation and Oxidative Stress Level Assay” (priority 2007, published 2010)
